# Experimental data as given in patent US20100317528A1, “HERBICIDE CONTAINING BENZOYLPYRAZOLE COMPOUND” (ISHIHARA SANGYO KAISHA, LTD., priority 2006, published 2010).
# Key:
# Assay type in all cases: in vivo
# [1] = system: barnyardgrass (Echinochloa crus-galli L.); test: Test Example 1: foliar treatment, upland pot test, barnyardgrass; settings: 31 g/ha active ingredient, observed 17th to 25th day after application; for inhibition at 31 g/ha: Echinochloa crus-galli, read-out: Growth inhibition rate (%) Barnyardgrass
# Excerpt: (§1) Upland field soil was put into a 1/170,000 hectare pot, and seeds of various plants were sown. When the respective plants reached predetermined leaf stage ((1) barnyardgrass (Echinochloa crus-galli L.): 1.0 to 3.0 leaf stage, (2) crabgrass (Digitaria sanguinalis L.): 1.0 to 3.0 leaf stage, (3) green foxtail (Setaria viridis L.): 1.0 to 3.0 leaf stage, (4) redroot pigweed (Amaranthus retroflexus L.): cotyledon stage to 2.0 leaf stage, (5) prickly sida (Sida spinosa L.): cotyledon stage to 1.0 leaf stage, (6) velvetleaf (Abutilon theophrasti MEDIC.): 0.1 to 1.5 leaf stage, (7) rice (Oryza sativa L.): 1.0 to 3.0 leaf stage, (8) wheat (Triticum spp.): 1.7 to 3.4 leaf stage, (9) corn (Zea mays L.): 2.0 to 3.5 leaf stage, (10) soybean (Glycine max Merr.): primary leaf stage to 0.4 leaf stage), wettable powders or emulsifiable concentrates of the compounds of the above formula (I) prepared in accordance with a conventional preparation method, were weighed so that the active ingredients became the prescribed amounts, and diluted with water in an amount corresponding to 500 liter per 1 hectare (containing 0.1 vol % of “KUSARINOH”, manufactured by NIHON NOHYAKU CO., LTD. as an agricultural spreader). The spray solutions thus prepared were applied for foliar treatment by a small sprayer.
# (§2) On the 17th to 25th day after application, the state of growth of the respective plants was visually observed, and the herbicidal effect was evaluated by a growth inhibition rate (%) of 0 (equivalent to the non-treated area) to 100% (complete kill).
# [2] = system: crabgrass (Digitaria sanguinalis L.); test: Test Example 1: foliar treatment, upland pot test, crabgrass; settings: 31 g/ha active ingredient, observed 17th to 25th day after application; for inhibition at 31 g/ha: Digitaria sanguinalis, read-out: Growth inhibition rate (%) Crabgrass
# Excerpt: as §1, §2
# [3] = system: green foxtail (Setaria viridis L.); test: Test Example 1: foliar treatment, upland pot test, green foxtail; settings: 31 g/ha active ingredient, observed 17th to 25th day after application; for inhibition at 31 g/ha: Setaria viridis, read-out: Growth inhibition rate (%) Green foxtail
# Excerpt: as §1, §2
# [4] = system: redroot pigweed (Amaranthus retroflexus L.); test: Test Example 1: foliar treatment, upland pot test, redroot pigweed; settings: 31 g/ha active ingredient, observed 17th to 25th day after application; for inhibition at 31 g/ha: Amaranthus retroflexus, read-out: Growth inhibition rate (%) Redroot pigweed
# Excerpt: as §1, §2
# [5] = system: prickly sida (Sida spinosa L.); test: Test Example 1: foliar treatment, upland pot test, prickly sida; settings: 31 g/ha active ingredient, observed 17th to 25th day after application; for inhibition at 31 g/ha: Sida spinosa, read-out: Growth inhibition rate (%) Prickly sida
# Excerpt: as §1, §2
# [6] = system: velvetleaf (Abutilon theophrasti MEDIC.); test: Test Example 1: foliar treatment, upland pot test, velvetleaf; settings: 31 g/ha active ingredient, observed 17th to 25th day after application; for inhibition at 31 g/ha: Abutilon theophrasti, read-out: Growth inhibition rate (%) Velvetleaf
# Excerpt: as §1, §2
# [7] = system: rice (Oryza sativa L.); test: Test Example 1: foliar treatment, upland pot test, rice; settings: 31 g/ha active ingredient, observed 17th to 25th day after application; for inhibition at 31 g/ha: Oryza sativa, read-out: Growth inhibition rate (%) Rice
# Excerpt: as §1, §2
# [8] = system: wheat (Triticum spp.); test: Test Example 1: foliar treatment, upland pot test, wheat; settings: 31 g/ha active ingredient, observed 17th to 25th day after application; for inhibition at 31 g/ha: Triticum, read-out: Growth inhibition rate (%) Wheat
# Excerpt: as §1, §2
# [9] = system: corn (Zea mays L.); test: Test Example 1: foliar treatment, upland pot test, corn; settings: 31 g/ha active ingredient, observed 17th to 25th day after application; for inhibition at 31 g/ha: Zea mays, read-out: Growth inhibition rate (%) Corn
# Excerpt: as §1, §2
# [10] = system: barnyardgrass (Echinochloa crus-galli L.); test: Test Example 2: soil application on the day after sowing, barnyardgrass; settings: 250 g/ha active ingredient, observed 19th to 28th day after application; for inhibition at 250 g/ha: Echinochloa crus-galli, read-out: Growth inhibition rate (%) Barnyardgrass
# Excerpt: (§3) Upland field soil was put into a 1/170,000 hectare pot, and seeds of various plants barnyardgrass (Echinochloa crus-galli L.), crabgrass (Digitaria sanquinalis L.), green foxtail (Setaria viridis L.), redroot pigweed (Amaranthus retroflexus L.), prickly sida (Sida spinosa L.), velvetleaf (Abutilon theophrasti MEDIC.), rice (Oryza sativa L.), wheat (Triticum spp.), corn (Zea mays L.) and soybean (Glycine max Merr.)) were sown. On the day after sowing, wettable powders or emulsifiable concentrates of the compounds of the above formula (I) prepared in accordance with a conventional preparation method, were weighed so that the active ingredients became the prescribed amounts, and diluted with water in an amount corresponding to 500 liter per 1 hectare, followed by soil application with a small sprayer.
# (§4) On the 19th to 28th day after the application, the state of growth of the respective plants was visually observed, and the herbicidal effect was evaluated by a growth inhibition rate (%) of from 0 (equivalent to the non-treated area) to 100% (complete kill).
# [11] = system: crabgrass (Digitaria sanquinalis L.); test: Test Example 2: soil application on the day after sowing, crabgrass; settings: 250 g/ha active ingredient, observed 19th to 28th day after application; for inhibition at 250 g/ha: Digitaria, read-out: Growth inhibition rate (%) Crabgrass
# Excerpt: as §3, §4
# [12] = system: green foxtail (Setaria viridis L.); test: Test Example 2: soil application on the day after sowing, green foxtail; settings: 250 g/ha active ingredient, observed 19th to 28th day after application; for inhibition at 250 g/ha: Setaria viridis, read-out: Growth inhibition rate (%) Green foxtail
# Excerpt: as §3, §4
# [13] = system: redroot pigweed (Amaranthus retroflexus L.); test: Test Example 2: soil application on the day after sowing, redroot pigweed; settings: 250 g/ha active ingredient, observed 19th to 28th day after application; for inhibition at 250 g/ha: Amaranthus retroflexus, read-out: Growth inhibition rate (%) Redroot pigweed
# Excerpt: as §3, §4
# [14] = system: prickly sida (Sida spinosa L.); test: Test Example 2: soil application on the day after sowing, prickly sida; settings: 250 g/ha active ingredient, observed 19th to 28th day after application; for inhibition at 250 g/ha: Sida spinosa, read-out: Growth inhibition rate (%) Prickly sida
# Excerpt: as §3, §4
# [15] = system: velvetleaf (Abutilon theophrasti MEDIC.); test: Test Example 2: soil application on the day after sowing, velvetleaf; settings: 250 g/ha active ingredient, observed 19th to 28th day after application; for inhibition at 250 g/ha: Abutilon theophrasti, read-out: Growth inhibition rate (%) Velvetleaf
# Excerpt: as §3, §4
# [16] = system: rice (Oryza sativa L.); test: Test Example 2: soil application on the day after sowing, rice; settings: 250 g/ha active ingredient, observed 19th to 28th day after application; for inhibition at 250 g/ha: Oryza sativa, read-out: Growth inhibition rate (%) Rice
# Excerpt: as §3, §4
# [17] = system: wheat (Triticum spp.); test: Test Example 2: soil application on the day after sowing, wheat; settings: 250 g/ha active ingredient, observed 19th to 28th day after application; for inhibition at 250 g/ha: Triticum, read-out: Growth inhibition rate (%) Wheat
# Excerpt: as §3, §4
# [18] = system: corn (Zea mays L.); test: Test Example 2: soil application on the day after sowing, corn; settings: 250 g/ha active ingredient, observed 19th to 28th day after application; for inhibition at 250 g/ha: Zea mays, read-out: Growth inhibition rate (%) Corn
# Excerpt: as §3, §4
# [19] = system: soybean (Glycine max Merr.); test: Test Example 2: soil application on the day after sowing, soybean; settings: 250 g/ha active ingredient, observed 19th to 28th day after application; for inhibition at 250 g/ha: Glycine max, read-out: Growth inhibition rate (%) Soybean
# Excerpt: as §3, §4
# [20] = system: soybean (Glycine max Merr.); test: Test Example 1: foliar treatment, upland pot test, soybean; settings: 31 g/ha active ingredient, observed 17th to 25th day after application
# Excerpt: as §1, §2
SMILES,Growth inhibition rate (%) Barnyardgrass [1],Growth inhibition rate (%) Crabgrass [2],Growth inhibition rate (%) Green foxtail [3],Growth inhibition rate (%) Redroot pigweed [4],Growth inhibition rate (%) Velvetleaf [6],Growth inhibition rate (%) Rice [7],Growth inhibition rate (%) Wheat [8],Growth inhibition rate (%) Corn [9],Growth inhibition rate (%) Barnyardgrass [10],Growth inhibition rate (%) Crabgrass [11],Growth inhibition rate (%) Green foxtail [12],Growth inhibition rate (%) Redroot pigweed [13],Growth inhibition rate (%) Prickly sida [14],Growth inhibition rate (%) Velvetleaf [15],Growth inhibition rate (%) Rice [16],Growth inhibition rate (%) Wheat [17],Growth inhibition rate (%) Corn [18],inhibition at 31 g/ha [1],inhibition at 31 g/ha [2],inhibition at 31 g/ha [3],also measured
COC(=O)Cc1c(S(C)(=O)=O)ccc(C(=O)c2cnn(C)c2O)c1C [compound 156],75%,90%,70%,70%,80%,70%,0%,0%,60%,95%,50%,100%,80%,80%,60%,0%,0%,–,–,–,Growth inhibition rate (%) Prickly sida [5]: 60%; Growth inhibition rate (%) Soybean [19]: 0%
Cc1c(C(=O)c2cnn(C)c2O)ccc(S(C)(=O)=O)c1OC(C)C [compound 145],70%,60%,75%,90%,85%,60%,0%,0%,60%,90%,30%,60%,60%,40%,0%,0%,0%,–,–,–,Growth inhibition rate (%) Soybean [20]: 70%; Growth inhibition rate (%) Soybean [19]: 0%
CCn1ncc(C(=O)c2ccc(S(C)(=O)=O)c(C(=O)OC)c2C)c1O [compound 127],–,–,–,–,–,–,–,–,–,–,–,–,–,–,–,–,–,90%,90%,90%,inhibition at 31 g/ha [4]: 100%; inhibition at 31 g/ha [5]: 80%; inhibition at 31 g/ha [6]: 100%; inhibition at 31 g/ha [7]: 90%; inhibition at 31 g/ha [8]: 0%; inhibition at 31 g/ha [9]: 40%; inhibition at 250 g/ha [10]: 85%; inhibition at 250 g/ha [11]: 100%; inhibition at 250 g/ha [12]: 100%; inhibition at 250 g/ha [13]: 100%; inhibition at 250 g/ha [14]: 60%; inhibition at 250 g/ha [15]: 70%; inhibition at 250 g/ha [16]: 70%; inhibition at 250 g/ha [17]: 10%; inhibition at 250 g/ha [18]: 0%; inhibition at 250 g/ha [19]: 50%
COCCOc1c(S(C)(=O)=O)ccc(C(=O)c2c(C)nn(C(C)C)c2O)c1C [compound 260],95%,80%,70%,90%,70%,70%,0%,0%,100%,100%,100%,100%,60%,70%,100%,20%,60%,–,–,–,Growth inhibition rate (%) Prickly sida [5]: 30%; Growth inhibition rate (%) Soybean [20]: 40%
COC(=O)c1c(S(C)(=O)=O)ccc(C(=O)c2cnn(C)c2O)c1C [compound 126],–,–,–,–,–,–,–,–,–,–,–,–,–,–,–,–,–,95%,80%,100%,inhibition at 31 g/ha [4]: 100%; inhibition at 31 g/ha [5]: 90%; inhibition at 31 g/ha [6]: 100%; inhibition at 31 g/ha [7]: 100%; inhibition at 31 g/ha [8]: 0%; inhibition at 31 g/ha [9]: 5%; inhibition at 250 g/ha [10]: 90%; inhibition at 250 g/ha [11]: 100%; inhibition at 250 g/ha [12]: 70%; inhibition at 250 g/ha [13]: 100%; inhibition at 250 g/ha [14]: 70%; inhibition at 250 g/ha [15]: 70%; inhibition at 250 g/ha [16]: 95%; inhibition at 250 g/ha [17]: 10%; inhibition at 250 g/ha [18]: 0%; inhibition at 250 g/ha [19]: 60%
CCOc1c(S(C)(=O)=O)ccc(C(=O)c2cnn(C)c2O)c1C [compound 144],–,–,–,–,–,–,–,–,–,–,–,–,–,–,–,–,–,98%,95%,100%,inhibition at 31 g/ha [4]: 100%; inhibition at 31 g/ha [5]: 100%; inhibition at 31 g/ha [6]: 100%; inhibition at 31 g/ha [7]: 75%; inhibition at 31 g/ha [8]: 20%; inhibition at 31 g/ha [9]: 10%; inhibition at 250 g/ha [10]: 80%; inhibition at 250 g/ha [11]: 100%; inhibition at 250 g/ha [12]: 70%; inhibition at 250 g/ha [13]: 75%; inhibition at 250 g/ha [14]: 50%; inhibition at 250 g/ha [15]: 50%; inhibition at 250 g/ha [16]: 70%; inhibition at 250 g/ha [17]: 0%; inhibition at 250 g/ha [18]: 0%; inhibition at 250 g/ha [19]: 0%
